The test has as its target T1, PTB domain/c-erbB2 binding (GST-PTB domain of SHC; c-erbB2 from SKBR3 lysate) (Homo sapiens, UniProt P29353).
T1 construct: GST-PTB domain fusion proteins were expressed from recombinant baculovirus in sf9 cells; made in house; host or cells: Sf9 cells (recombinant baculovirus) for GST-PTB; c-erbB2 endogenous in SKBR3 cell lysate
T1 sequence (P29353 156-341): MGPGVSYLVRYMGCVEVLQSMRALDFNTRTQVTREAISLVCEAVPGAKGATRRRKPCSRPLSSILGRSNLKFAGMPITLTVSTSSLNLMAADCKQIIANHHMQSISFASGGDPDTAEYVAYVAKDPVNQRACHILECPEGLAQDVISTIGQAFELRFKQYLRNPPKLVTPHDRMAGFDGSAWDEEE
Kind of test: biochemical. Conditions: Inhibition (relative inhibition scale of IC50).

Where a SMILES comes first, the peptide text is derived from it.

As usually defined, the IC50 is the point on the concentration scale where inhibition reaches its midpoint.

As to `CC(C)C[C@H](NC(=O)[C@H](CC(N)=O)NC(=O)[C@H](CC(=O)O)NC(=O)[C@H](Cc1ccccc1)NC(=O)[C@H](C)NC(=O)[C@@H]1CCCN1C(=O)[C@H](CO)NC(=O)[C@H](Cc1ccccc1)NC(=O)[C@H](C)NC(=O)[C@@H]1CCCN1)C(=O)N[C@@H](Cc1ccc(O)cc1)C(=O)N[C@@H](Cc1ccc(OP(=O)(O)O)cc1)C(=O)N[C@@H](Cc1ccccc1)C(=O)N[C@@H](CC(=O)O)C(=O)N[C@@H](CCC(N)=O)C(=O)N[C@@H](CC(N)=O)C(=O)N[C@@H](CO)C(=O)N[C@@H](CO)C(=O)N[C@@H](CCC(=O)O)C(=O)N[C@@H](CCC(N)=O)C(=O)NCC(=O)O` [PAFSPAFDNLY (pY) FDQNSSEQG, PAFSPAFDNLY(pY)FDQNSSEQG] (HELM PEPTIDE1{P.A.F.S.P.A.F.D.N.L.Y.[O=C([C@H](Cc1ccc(OP(=O)(O)O)cc1)N[*:1])[*:2]].F.D.Q.N.S.S.E.Q.G}$$$$V2.0), the IC50 was in the range of 500 to 5000 nM.

These data come from patent US20020156236A1, “Binding sites for phosphotyrosine binding domains” (priority 1995, published 2002).
